Where two headings read alike, the source gives them in different places. Blank lines part the entries; values can stand above or below the compound they belong to.
What was measured:
[1] = logP by HPLC (EEC-Directive 79/831 Annex V.A8); type: physicochemical
Protocol: The logP values given in the tables were determined in accordance with EEC-Directive 79/831 Annex V.A8 by HPLC (gradient method, acetonitrile/0.1% strength aqueous phosphoric acid or formic acid).

[2] = system: larvae of the mustard beetle (Phaedon cochleariae); test: Phaedon test (PHAECO spray treatment); type: in vivo; conditions: 168 h, application rate 500 g/ha, after 7 d, read-out: activity (effect in %, beetle larvae killed)
Protocol: Phaedon Test ([…] Spray Treatment) [table] To produce a suitable preparation of active compound, 1 part by weight of active compound is mixed with the stated amounts of solvents and emulsifier, and the concentrate is diluted with emulsifier-containing water to the desired concentration. Discs of chinese cabbage (Brassica pekinensis) are sprayed with an active compound preparation of the desired concentration and, after drying, populated with larvae of the mustard beetle (Phaedon cochleariae). After the desired period of time, the effect in % is determined 100% means that all beetle larvae have been killed; 0% means that none of the beetle larvae have been killed.

[3] = HPLC gradient method, acetonitrile/0.1% aqueous phosphoric acid or formic acid
[4] = Physical data column of Table 35
[5] = HPLC gradient method, acetonitrile/0.1% strength aqueous phosphoric acid or formic acid

logP [1]: logP = 2.59
Structure (SMILES): Nc1c(-c2ccccc2Cl)c(C(F)(F)F)nn1-c1ncccn1 [1-04]

logP [1, 3]: logP 3.22
Structure (SMILES): Nc1c(-c2ccc(Oc3ccccc3)cc2)c(C(F)(F)F)nn1-c1ncccn1 [5-40]

Structure (SMILES): Nc1c(-c2cccc(Cl)c2)c(C(F)(F)F)nn1-c1ncccn1 [Example 1-5]
logP [1, 3]: logP = 2.96

Structure (SMILES): CCOc1ccc(-c2c(C(F)(F)F)nn(-c3ncccn3)c2N)cc1 [Example 5-23]
pest or weed control at 500 g/ha [2]: ≥ 80%

Structure (SMILES): CC(C)Oc1ccc(-c2c(C(F)(F)F)nn(-c3ncccn3)c2N)cc1 [Example 5-25]
pest or weed control at 500 g/ha [2]: ≥ 80%

Structure (SMILES): CSc1ccc(-c2c(C(F)(F)F)nn(-c3ncccn3)c2N)cc1 [Example 5-58]
pest or weed control at 500 g/ha [2]: ≥ 80%

Structure (SMILES): C[S+]([O-])c1ccc(-c2c(C(F)(F)F)nn(-c3ncccn3)c2N)cc1 (centres unmarked) [Example 5-59]
pest or weed control at 500 g/ha [2]: ≥ 80%

Structure (SMILES): CS(=O)(=O)c1ccc(-c2c(C(F)(F)F)nn(-c3ncccn3)c2N)cc1 [Example 5-60]
pest or weed control at 500 g/ha [2]: ≥ 80%

logP (lgP), Physical data ([1]; by HPLC): lgP = 3.88
Structure (SMILES): FC(F)(F)c1nn(-c2ncccn2)c(Cl)c1-c1cccc(Cl)c1 [Example 14-06]

logP (lgP), Physical data ([1]; by HPLC): lgP = 3.89
Structure (SMILES): FC(F)(F)c1nn(-c2ncccn2)c(Br)c1-c1cccc(Cl)c1 [Example 14-25]

chromatographic logP ([1]; by HPLC, read-out: logP (lgP), Physical data): 3.75
Structure (SMILES): FC(F)(F)c1nn(-c2ncccn2)c(Br)c1-c1ccc(Br)cc1 [Example 14-29]

logP (lgP), Physical data ([1]; by HPLC): lgP = 4.62
Structure (SMILES): FC(F)(F)c1nn(-c2ncccn2)c(Br)c1-c1cc(Cl)cc(Cl)c1 [Example 14-38]

logP (lgP), Physical data ([1]; by HPLC): lgP = 3.78
Structure (SMILES): FC(F)(F)c1nn(-c2ncccn2)c(I)c1-c1cccc(Cl)c1 [Example 14-44]

logP (lgP), Physical data ([1]; by HPLC): lgP = 4.39
Structure (SMILES): FC(F)(F)c1nn(-c2ncccn2)c(I)c1-c1ccc(Cl)c(Cl)c1 [Example 14-56]

logP (lgP), Physical data ([1]; by HPLC): lgP = 4.51
Structure (SMILES): FC(F)(F)c1nn(-c2ncccn2)c(I)c1-c1cc(Cl)cc(Cl)c1 [Example 14-57]

logP (lgP), Physical data ([1]; by HPLC): lgP = 4.64
Structure (SMILES): FC(F)(F)c1cc(Cl)cc(-c2c(C(F)(F)F)nn(-c3ncccn3)c2Br)c1 [Example 14-58]

logP (lgP), Physical data ([1]; by HPLC): lgP = 4.39
Structure (SMILES): FC(F)(F)c1cc(Cl)cc(-c2c(C(F)(F)F)nn(-c3ncccn3)c2I)c1 [Example 14-59]

logP ([1]; Physical data column of Table 16): logP = 1.71
Structure (SMILES): Cc1nn(-c2ncccn2)c(N)c1-c1ccc(F)cc1Cl [Example 16-18]

lgP ([1]; Table 19, Physical data): lgP = 3.84
Structure (SMILES): Cc1ccnc(-n2nc(C(F)(F)F)c(-c3cccc(Br)c3)c2N)n1 [Example 19-09]

lgP ([1]; Table 19, Physical data): lgP = 3.37
Structure (SMILES): Cc1ccnc(-n2nc(C(F)(F)F)c(-c3ccc(Br)cc3)c2N)n1 [Example 19-10]

lgP ([1]; Table 19, Physical data): lgP = 3.73
Structure (SMILES): Cc1ccnc(-n2nc(C(F)(F)F)c(-c3ccc(Cl)c(Cl)c3)c2N)n1 [Example 19-18]

Structure (SMILES): Nc1c(-c2ccc(Br)cc2)c(C(F)(F)F)nn1-c1ncc(F)cn1 [Example 19-48]
lgP ([1]; Table 19, Physical data): lgP = 3.19

Structure (SMILES): Nc1c(-c2cc(Cl)cc(Cl)c2)c(C(F)(F)F)nn1-c1ncc(F)cn1 [Example 19-57]
lgP ([1]; Table 19, Physical data): lgP = 3.63

lgP ([1]; Table 19, Physical data): lgP = 3.53
Structure (SMILES): Nc1c(-c2ccc(Cl)cc2)c(C(F)(F)F)nn1-c1ncc(Cl)cn1 [Example 19-64]

Structure (SMILES): Nc1c(-c2cc(Cl)cc(Cl)c2)c(C(F)(F)F)nn1-c1ncc(Cl)cn1 [Example 19-76]
lgP ([1]; Table 19, Physical data): lgP = 4.10

lgP ([1]; Table 19, Physical data): lgP = 4.15
Structure (SMILES): Nc1c(-c2cc(Cl)cc(Cl)c2)c(C(F)(F)F)nn1-c1ncc(Br)cn1 [Example 19-95]

Structure (SMILES): Nc1c(-c2cc(Cl)cc(Cl)c2)c(C(F)(F)F)nn1-c1nccc(C(F)(F)F)n1 [Example 19-152]
lgP ([1]; Table 19, Physical data): lgP = 4.25

lgP ([1]; Table 19, Physical data): lgP = 2.93
Structure (SMILES): COc1ccnc(-n2nc(C(F)(F)F)c(-c3cc(Cl)cc(Cl)c3)c2N)n1 [Example 19-171]

lgP ([1]; Table 19, Physical data): lgP = 3.42
Structure (SMILES): Cc1ccnc(-n2nc(C(F)(F)F)c(-c3cc(F)cc(Cl)c3)c2N)n1 [Example 19-198]

lgP ([1]; Table 19, Physical data): lgP = 3.06
Structure (SMILES): Cc1ccnc(-n2nc(C(F)(F)F)c(-c3cc(F)cc(F)c3)c2N)n1 [Example 19-199]

lgP ([1]; Table 19, Physical data): lgP = 3.28
Structure (SMILES): Cc1ccnc(-n2nc(C(F)(F)F)c(-c3ccc(Br)cc3F)c2N)n1 [Example 19-200]

lgP ([1]; Table 19, Physical data): lgP = 3.02
Structure (SMILES): Cc1ccnc(-n2nc(C(F)(F)F)c(-c3ccc(F)c(F)c3)c2N)n1 [Example 19-201]

lgP ([1]; Table 19, Physical data): lgP = 3.42
Structure (SMILES): Cc1cc(C)cc(-c2c(C(F)(F)F)nn(-c3nccc(C)n3)c2N)c1 [Example 19-202]

lgP ([1]; Table 19, Physical data): lgP = 3.42
Structure (SMILES): Cc1cnc(-n2nc(C(F)(F)F)c(-c3cc(F)cc(Cl)c3)c2N)nc1 [Example 19-203]

lgP ([1]; Table 19, Physical data): lgP = 3.06
Structure (SMILES): Cc1cnc(-n2nc(C(F)(F)F)c(-c3cc(F)cc(F)c3)c2N)nc1 [Example 19-204]

lgP ([1]; Table 19, Physical data): lgP = 3.28
Structure (SMILES): Cc1cnc(-n2nc(C(F)(F)F)c(-c3ccc(Br)cc3F)c2N)nc1 [Example 19-205]

lgP ([1]; Table 19, Physical data): lgP = 3.02
Structure (SMILES): Cc1cnc(-n2nc(C(F)(F)F)c(-c3ccc(F)c(F)c3)c2N)nc1 [Example 19-206]

lgP ([1]; Table 19, Physical data): lgP = 4.05
Structure (SMILES): Cc1cnc(-n2nc(C(F)(F)F)c(-c3cc(Br)cc(Br)c3)c2N)nc1 [Example 19-207]

lgP ([1]; Table 19, Physical data): lgP = 3.47
Structure (SMILES): Cc1cnc(-n2nc(C(F)(F)F)c(-c3cc(C)cc(C)c3)c2N)nc1 [Example 19-208]

lgP ([1]; Table 19, Physical data): lgP = 3.84
Structure (SMILES): N#Cc1ccnc(-n2nc(C(F)(F)F)c(-c3cc(Cl)cc(Cl)c3)c2N)n1 [Example 19-209]

logP ([1]; Table 25, Physical data): logP = 2.59
Structure (SMILES): CCNc1c(-c2ccc(F)cc2)c(C)nn1-c1ncccn1 [Example 25-04]

logP ([1]; Table 25, Physical data): logP = 2.69
Structure (SMILES): CCNc1c(-c2ccccc2Cl)c(C)nn1-c1ncccn1 [Example 25-05]

logP ([1]; Table 25, Physical data): logP = 3.02
Structure (SMILES): CCNc1c(-c2cccc(Cl)c2)c(C)nn1-c1ncccn1 [Example 25-06]

Structure (SMILES): CCNc1c(-c2ccc(F)cc2Cl)c(C)nn1-c1ncccn1 [Example 25-31]
logP [1]: logP = 2.79

logP ([1]; Physical data of Table 26): logP = 3.37
Structure (SMILES): CCCNc1c(-c2cccc(Cl)c2)c(C)nn1-c1ncccn1 [Example 26-6]

logP ([1]; Physical data of Table 26): logP = 3.42
Structure (SMILES): CCCNc1c(-c2ccc(Cl)cc2)c(C)nn1-c1ncccn1 [Example 26-7]

Structure (SMILES): Cc1nn(-c2ncccn2)c(NC(C)C)c1-c1ccc(F)cc1Cl [Example 26-37]
logP ([1]; Physical data of Table 26): logP = 2.91

logP ([1]; Physical data of Table 26): logP = 3.37
Structure (SMILES): Cc1nn(-c2ncccn2)c(NCc2ccccc2)c1-c1ccccc1Cl [Example 26-44]

logP ([1]; Physical data of Table 26): logP = 4.23
Structure (SMILES): Cc1nn(-c2ncccn2)c(NCc2ccccc2)c1-c1ccc(Cl)cc1Cl [Example 26-54]

Structure (SMILES): Cc1nn(-c2ncccn2)c(NCC2CC2)c1-c1ccc(F)cc1 [Example 26-62]
logP ([1]; Physical data of Table 26): logP = 3.15

logP ([1]; Physical data of Table 26): logP = 3.84
Structure (SMILES): CC(C)=CCNc1c(-c2ccc(Cl)cc2)c(C)nn1-c1ncccn1 [Example 26-84]

lgP ([1]; Physical data column of Table 32): lgP = 1.76
Structure (SMILES): CCc1nn(-c2ncccn2)c(N)c1-c1ccc(Cl)nc1 [Example 32-37]

logP [1, 4]: logP 2.66; ^1H-NMR
Structure (SMILES): Nc1c(-c2ccc(Cl)cc2)c(C2CC2)nn1-c1ncccn1 [Example 35-07]

logP [1, 4]: logP 3.34
Structure (SMILES): Nc1c(-c2ccc(Br)cc2)c(C2CCCC2)nn1-c1ncccn1 [Example 35-87]

lgP [1, 5]: lgP = 3.24
Structure (SMILES): Nc1c(-c2cc(F)cc(Cl)c2)c(C(F)(F)F)nn1-c1ncc(F)cn1 [Example 43-07]

lgP [1, 5]: lgP = 2.93
Structure (SMILES): Nc1c(-c2cc(F)cc(F)c2)c(C(F)(F)F)nn1-c1ncc(F)cn1 [Example 43-08]

lgP [1, 5]: lgP = 3.15
Structure (SMILES): Nc1c(-c2ccc(Br)cc2F)c(C(F)(F)F)nn1-c1ncc(F)cn1 [Example 43-09]

lgP [1, 5]: lgP = 2.84
Structure (SMILES): Nc1c(-c2ccc(F)c(F)c2)c(C(F)(F)F)nn1-c1ncc(F)cn1 [Example 43-10]

lgP [1, 5]: lgP = 3.84
Structure (SMILES): Nc1c(-c2cc(Br)cc(Br)c2)c(C(F)(F)F)nn1-c1ncc(F)cn1 [Example 43-11]
